Reference: patent US8481752B2, “Fluorescent imaging with substituted cyanine dyes” (Li-Cor, Inc., priority 2009, dated 2013)

Assays:
[1] = Photostability on nitrocellulose under repeated Odyssey scans; format: physicochemical; settings: for relative fluorescence with additional scans: as GAR conjugates on nitrocellulose, normalized to first scan, 100 scans
Procedure: The photostability of compound 8 was compared to that of Alexa Fluor 680 and IRDye 700DX. IRDye 700DX is one of the most photostable 700 nm fluorescent dyes known. Test samples were prepared by spotting equimolar amounts of dye-labeled conjugates (i.e., goat anti-rabbit (GAR) secondary antibodies labeled with the appropriate dye) onto nitrocellulose membrane. The membrane was then scanned repeatedly on an Odyssey Infrared Imager, so that the prolonged exposure of the dyes to the laser source induced some photodegradation. The signal intensity for each dye was normalized to the signal in the first scan for that dye (FIG. 9A-B).

[2] = Water solubility of the dye; format: physicochemical

Compound | resistance to photodegradation ([1]; as GAR conjugate) | relative fluorescence with additional scans [1] | water solubility [2]
CC1(C)C(/C=C/C(=C/C=C2/N(CCCS(=O)(=O)O)c3ccc4c(S(=O)(=O)[O-])cc(S(=O)(=O)O)cc4c3C2(C)C)c2cccc(CCCCC(=O)O)c2)=[N+](CCCS(=O)(=O)O)c2ccc3c(S(=O)(=O)O)cc(S(=O)(=O)O)cc3c21 [Compound 8, Sodium 2-((1E,3Z,5E)-3-(3-(4-Carboxybutyl)phenyl)-5-(1,1-dimethyl-6,8-disulfonato-3-(3-sulfonatopropyl)-1H-benzo[e]indol-2(3H)-ylidene)penta-1,3-dienyl)-1,1-dimethyl-3-(3-sulfonatopropyl)-1H-benzo[e]indolium-6,8-disulfonate] | good resistance to photodegradation | decreased slightly | highly water-soluble
C[Si](C)(CCC[N+](CCCS(=O)(=O)[O-])(CCCS(=O)(=O)[O-])CCCS(=O)(=O)[O-])O[Si]1(O[Si](C)(C)CCC[N+](CCCS(=O)(=O)[O-])(CCCS(=O)(=O)[O-])CCCS(=O)(=O)[O-])n2c3c4ccccc4c2N=C2N=C(N=c4c5ccccc5c(n41)=NC1=NC(=N3)c3ccccc31)c1cccc(OCCCOC(=O)NCCCCCC(=O)ON3C(=O)CCC3=O)c12.[Na+].[Na+].[Na+].[Na+] (stereo not shown) [IRDye 700DX] |  | essentially unchanged | 
